Paper PMC12455572, “Amphipathic Proline-Rich Cell Penetrating Peptides for Targeting Mitochondria” (ACS Chemical Biology, 2025)
Where a SMILES comes first, the peptide text is derived from it. [ ]: non-standard residue; d: D form. The star is where a group is joined. 5FAM = O=C1OC2(c3ccc(O)cc3Oc3cc(O)ccc32)c2ccc(C(=O)*)cc21; Pro(cis-4-guanidino) = NC(N)=N[C@@H]1CN[C@H](C(=O)O)C1; Cha = N[C@@H](CC1CCCCC1)C(=O)O; Ahx = NCCCCCC(=O)O

Key:
[1] = RP-HPLC retention time as estimate of hydrophobicity (C4 column, 30 to 55% B); format: physicochemical; conditions: RP-HPLC used as estimate of hydrophobicity, A H2O/MeCN/TFA (1000/10/1), gradient 30 to 55% B, 20 min, CF-Ahx-labelled peptides
Method: 2 (A) General structure of amphipathic peptides, CF-Ahx-[XZZ]3-NH2; CF = 5(6)-Carboxyfluorescein, Ahx = aminohexanoic acid. (B) CD spectra of the peptides, recorded at 50 μM in H2O, pH 5.7. For a comparison with a spectrum of a Gup oligomer, see Figure S2. (C) Retention time of the peptides measured by RP-HPLC on a C4 column with a mobile phase from 30 to 55% of MeCN in H2O/MeCN/TFA (1000/10/1). (D) Representative confocal microscopic images of live MCF-7 cells, incubated for 1 h at 37 °C with peptide solutions at a concentration of 10 μM in DMEM + 1% FBS (left, in green). Mitochondria were stained with Deep Red MitoTracker (middle, in red) and merged images (right, orange/yellow indicating colocalization) with Hoechst33342 stain (blue) for the nucleus. TEXT PRINTED IN THE PICTURE: (C) (ValZZ)3: tr(min): 1.8 | (C) (PheZZ)3: tr(min): 2.9 | (C) (TrpZZ)3: tr(min): 3.2 | (C) (ChaZZ)3: tr(min): 5.4 DOUBTS OF THE COPYIST ABOUT THIS PICTURE: Panel C, column head: the small lowered letter after t is read as r (tr), not certain
The Gup residues should preorganize the peptides into a PPII helix with one hydrophobic and two cationic edges along the PPII helical peptide. Indeed, circular dichroism (CD) spectra of the peptides display the characteristic minimum and maximum at ∼206 nm and ∼224 nm, respectively, of a PPII helix (Figure B). The spectra imply that the non-proline residues in every third position are tolerated within the helical structure. We used reverse phase high performance liquid chromatography (RP-HPLC) for an estimate of the hydrophobicity of the peptides. On a C4 column using two mobile phases A (H2O/MeCN/TFA (1000/10/1)) and B (MeCN) with a gradient of 30% to 55% B, all peptides eluted over 20 min but with different retention times (Figure C). The Cha-containing peptide had the longest retention time, indicating the highest hydrophobicity within the series, followed by the Trp-, Phe-, and Val-peptides.

[2] = tested on: MCF-7 cells; experiment: Flow cytometry at 4 °C versus 37 °C; format: cell-based; conditions: MCF-7, 20 µM, 1 h
Method: MCF-7 cells were seeded in a 24-well plate at 150′000 cells/well in DMEM (1 mL, 10% FCS), and allowed to adhere overnight. The medium was removed, the cells were washed with PBS (250 μL, 1x) and incubated with the peptide solution at 20 μM, 10 μM, 5 μM or 2.5 μM in medium (200 μL, 1% FCS) for 1 h at 37 °C. The medium was removed, and the cells were washed with PBS (250 μL, 2x). Trypsin (100 μL, 0.05%) was added, and the cells were incubated at 37 °C for 5 min. D-PBS with Mg^2+ and Ca^2+ (300 μL, 4 °C) was added, the cells were resuspended and centrifuged for 5 min at 0.4 rcf. The supernatant was carefully removed, and the cells were resuspended in a solution of PBS containing 1.5 μM PI and 2 mM EDTA (400 μL at 4 °C). […] Each sample contained 10′000 cells and was analyzed in triplicate. […]
Figure S9. […] After 1 h incubation at 4 °C, the fluorescence signal is in case of most of the peptides lower, indicating an endocytosis pathway. […]
of different entry mechanisms. The indicated P-values were determined using one-way ANOVA followed by Tukey’s […]
(also on this page, place not known: µM µM °C µM °C (ChaZZ) µM °C (ChaZZ) µM °C (ChaZZ) µM °C 20000Mean fluorescence intensity (ChaZZ)3 °CCells °C (ChaZZ) µM °C (ChaZZ) µM °C (ChaZZ) 3-Cha µM °C (ChaZZ) 3-Cha µM °C (ChaZZ) 3-Cha µM °C (ChaZZ) 3-Cha µM °C (ChaZZ) 3-Cha µM °C (ChaZZ) 3-Cha µM °C 30000Mean fluorescence intensity)

Compound	Retention time tr [1] [min]	Fluorescence signal after incubation at 4 °C compared with 37 °C (FACS) [2]
N=C(N)N[C@H]1C[C@@H](C(=O)N2C[C@@H](NC(=N)N)C[C@H]2C(=O)N[C@@H](CC2CCCCC2)C(=O)N2C[C@@H](NC(=N)N)C[C@H]2C(=O)N2C[C@@H](NC(=N)N)C[C@H]2C(=O)N[C@@H](CC2CCCCC2)C(=O)N2C[C@@H](NC(=N)N)C[C@H]2C(=O)N2C[C@@H](NC(=N)N)C[C@H]2C(=O)N[C@@H](CC2CCCCC2)C(N)=O)N(C(=O)[C@H](CC2CCCCC2)NC(=O)CCCCCNC(=O)c2ccc3c(c2)C(=O)OC32c3ccc(O)cc3Oc3cc(O)ccc32)C1 [(ChaZZ)3-Cha, CF-Ahx-(ChaZZ)3-Cha-NH2] ({5FAM-Ahx}-[Cha][Pro(cis-4-guanidino)][Pro(cis-4-guanidino)][Cha][Pro(cis-4-guanidino)][Pro(cis-4-guanidino)][Cha][Pro(cis-4-guanidino)][Pro(cis-4-guanidino)][Cha]-NH2)	8.5	
CF-Ahx-(ChaZZ)3-NH2		close-to-level signal
CF-Ahx-(ChaZZ)2-Cha-NH2	8.1	
